Assay results as given in patent EP4699605A1, “USE OF NOVEL COMPOUND FOR TREATING INTRACTABLE DISEASES” (YJ Cerapeutics Inc., priority 2023, dated 2024).

Columns and labels:
[1] = system: nerve injury animal models (SCI, LSS, SNI); test: Mechanical allodynia (von-Frey filaments, 50% paw withdrawal threshold) in nerve injury animal models; type: in vivo, Sprague-Dawley rats; conditions: intraperitoneal 5 mg/kg; at 1 hour after administration
Protocol: To be used as a central nerve injury animal model, a traumatic spinal cord injury (SCI) model was prepared (FIG. 1A). Specifically, 230 to 250 g of male adult Sprague-Dawley rats were anesthetized by intraperitoneal injection of chloral hydrate (500 mg/kg), and then the back and neck regions were shaved, and the spinal cord under the back and neck regions was exposed without damaging the dura mater, and a laminectomy was performed at T9 to T10 levels. To stabilize the spine, the spinous processes of T8 and T11 were fixed, and the spine was damaged by free-falling a 10 g weight from a height of 25 mm using an NYU impactor onto the back surface of the exposed spinal cord and then the rats were left in a temperature and humidity-controlled chamber overnight while covering the muscles and skin. After surgery, the rats were subcutaneously injected with a supplement solution (5 ml, lactated ringer) and injected with antibiotics (gentamicin, 5 mg/kg, intramuscular injection) once daily for 5 days. The body weight, remaining food, and the weight of water were confirmed and recorded for all animals, and the bladder was emptied twice daily by passive bladder massage until reflex micturition was established. At this time, a Sham group was a group that was subjected to only laminectomy without damage.
To be used as a peripheral nerve injury animal model, a lumbar spinal stenosis (LSS) model was prepared (FIG. 1B). Specifically, 260 to 280 g of adult male Sprague-Dawley rats were anesthetized with intraperitoneal injection of chloral hydrate (500 mg/kg), the back region was shaved, and then the spinal plate was exposed at L4 to S2 levels. After removing the ligamentous section between L4 and L5, a trapezoidal silicone block (1.00 mm long × 1.3 to 1.2 mm wide × 1.0 mm high) was inserted into the epidural space below the L5 and L6 spinal plates without damaging the dural sac. At this time, a Sham group was a group that was subjected to only posterior […] on the animal without inserting a silicone block.
To be used as a peripheral nerve injury animal model, a sciatic nerve injury (SNI) model was prepared (FIG. 1C). Specifically, 200 to 220 g of male adult Sprague-Dawley rats were anesthetized by intraperitoneal injection of chloral hydrate (500 mg/kg), and then three terminal branches (tibial, common peroneal, and sural nerves) of the right sciatic nerve were approached, and the tibia nerve and the peroneal nerve were tightly ligated with 4-0 silk, and neurectomy was performed at a distal 3 mm position of the ligation site. At this time, a Sham group was a group that exposed only the sciatic nerve without damage.
In order to confirm a neuropathic pain inhibitory effect of YJ102 (Chemical Formula 1), a compound of the present disclosure, in the three nerve injury animal models prepared in Example 1 above, rats having pain on week 3 (SNI model) or week 4 (SCI model and LSS model) after surgery were selected and administered orally (p.o.) at 10 mg/kg or 20 mg/kg of YJ102 dissolved in a solution of DMSO, methyl pyrrolidinone, and water (1 : 1.5 : 1), or intraperitoneally injected (i.p. injection) at 1, 2, or 5 mg/kg of YJ102. In a positive control group, gabapentin or pregabalin dissolved in saline was intraperitoneally injected at a concentration of 5 mg/kg, and in a Vehicle group, the same amount of a solution of DMSO, methyl pyrrolidinone, and water was administered. Thereafter, in order to measure mechanical allodynia, the rats were located at the bottom of a transparent plastic box (10 cm × 10 cm) on top of a wire mesh (3 mm × 3 mm) and subjected to an adaptation period for approximately 20 minutes. Von-Frey filaments were applied to the soles of both paws and used with stiff nylon von-Frey monofilament series ([…], Stoelting, WoodDale, IL, USA; equivalent in grams to 0.4, 0.6, 1.0, 2.0, 4.0, 6.0, 8.0 and 15.0) with logarithmic increases in tactile (mechanical) sensitivity. […]

[2] = Observation of sedation as a side effect at high doses; type: in vivo, rats

Compound | analgesic effect (mechanical allodynia) [1] | sedation as a side effect ([2]; 50 mg/kg) | sedation as a side effect ([2]; 20 mg/kg)
NCC1(CC(=O)O)CCCCC1 [gabapentin, reference compound] | significant analgesic effect | observed | –
CC(C)C[C@H](CN)CC(=O)O [pregabalin, reference compound] | significant analgesic effect | – | observed
